Test results: patent US10918645B2 (LIFEARC, priority 2016, dated 2021)

Legend:
Type in all cases: biochemical
Conditions in all cases: 1 μM inhibitor concentration
[1] = target: YES1 (Homo sapiens (Human), UniProt P07947); test: YES1 kinase selectivity assay
Procedure: YES1 (5-20 mU diluted in 50 mM Tris pH 7.5, 0.1 mM EGTA, 1 mg/ml BSA) is assayed against a substrate peptide (Poly Glut Tyr) in a final volume of 25.5 μl containing 50 mM Tris pH 7.5, 1 mg/ml substrate peptide, 10 mM magnesium acetate and 0.02 mM [33P-g-ATP] (50-1000 cpm/pmole) and incubated for 30 min at room temperature. Assays are stopped by addition of 5 μl of 0.5 M (3%) orthophosphoric acid and then harvested onto P81 Unifilter plates with a wash buffer of 50 mM orthophosphoric acid.

[2] = system: VEG-FR; test: VEG-FR kinase selectivity assay
Procedure: VEG-FR (5-20 mU diluted in 50 mM Tris pH 7.5, 0.1 mM EGTA, 1 mg/ml BSA) is assayed against a substrate peptide ([…]) in a final volume of 25.5 μl containing 50 mM Tris pH 7.5, 300 µM substrate peptide, 10 mM magnesium acetate and 0.02 mM [33P-g-ATP] (50-1000 cpm/pmole) and incubated for 30 min at room temperature. Assays are stopped by addition of 5 μl of 0.5 M (3%) orthophosphoric acid and then harvested onto P81 Unifilter plates with a wash buffer of 50 mM orthophosphoric acid.

[3] = target: MST2 (Homo sapiens (Human), UniProt Q13188); test: MST2 kinase selectivity assay
Sequence of MST2 (Q13188 whole entry, species assumed): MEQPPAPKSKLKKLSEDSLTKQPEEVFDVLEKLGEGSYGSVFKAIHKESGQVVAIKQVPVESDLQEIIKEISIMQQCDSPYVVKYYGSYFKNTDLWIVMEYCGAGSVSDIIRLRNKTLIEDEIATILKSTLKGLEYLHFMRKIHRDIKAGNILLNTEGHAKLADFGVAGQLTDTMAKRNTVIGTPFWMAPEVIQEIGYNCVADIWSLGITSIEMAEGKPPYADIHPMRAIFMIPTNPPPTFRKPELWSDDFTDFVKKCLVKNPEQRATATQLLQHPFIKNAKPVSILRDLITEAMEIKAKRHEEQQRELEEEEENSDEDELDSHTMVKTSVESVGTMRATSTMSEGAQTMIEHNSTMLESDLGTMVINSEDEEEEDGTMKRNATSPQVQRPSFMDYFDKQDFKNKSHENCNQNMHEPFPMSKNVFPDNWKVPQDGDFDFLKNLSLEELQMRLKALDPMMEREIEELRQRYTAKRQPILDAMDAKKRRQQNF
Procedure: MST2 (5-20 mU diluted in 50 mM Tris pH 7.5, 0.1 mM EGTA, 0.1% b-mercaptoethanol, 100 µM Vanadate) is assayed against MBP in a final volume of 25.5 μl containing 50 mM Tris pH 7.5, 0.05% b-mercaptoethanol, 0.33 mg/ml MBP, 10 mM magnesium acetate and 0.02 mM [33P-g-ATP] (50-1000 cpm/pmole) and incubated for 30 min at room temperature. Assays are stopped by addition of 5 μl of 0.5 M (3%) orthophosphoric acid and then harvested onto P81 Unifilter plates with a wash buffer of 50 mM orthophosphoric acid.

[4] = target: CK1δ (Homo sapiens (Human), UniProt P48730); test: CK1 kinase selectivity assay
Sequence of CK1δ (P48730 whole entry): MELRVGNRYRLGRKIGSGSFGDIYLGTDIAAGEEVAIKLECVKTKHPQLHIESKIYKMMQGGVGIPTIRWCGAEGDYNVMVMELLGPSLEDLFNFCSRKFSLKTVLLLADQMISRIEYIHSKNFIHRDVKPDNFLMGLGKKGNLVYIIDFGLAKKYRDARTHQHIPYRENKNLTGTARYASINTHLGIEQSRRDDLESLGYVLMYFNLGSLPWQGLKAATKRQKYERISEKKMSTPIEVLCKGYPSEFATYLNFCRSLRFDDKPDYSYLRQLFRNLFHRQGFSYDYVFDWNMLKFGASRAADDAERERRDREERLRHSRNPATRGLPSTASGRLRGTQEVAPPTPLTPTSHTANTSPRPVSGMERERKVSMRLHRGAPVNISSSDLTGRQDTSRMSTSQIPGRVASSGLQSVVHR
Procedure: CK1 (5-20 mU diluted in 20 mM Hepes pH7.5, 0.15 M NaCl, 0.1 mM EGTA, 0.1% Triton X-100, 5 mM DTT, 50% glycerol) is assayed against CKI peptide ([…]) in a final volume of 25.5 μl containing 20 mM Hepes pH 7.5, 0.15 M NaCl, 0.1 mM EDTA, 5 mM DTT, 0.1% Triton-X 100, CKI peptide (0.5 mM), 10 mM magnesium acetate and 0.02 mM [33P-g-ATP](500-1000 cpm/pmole) and incubated for 30 min at room temperature. Assays are stopped by addition of 5 μl of 0.5 M (3%) orthophosphoric acid and then harvested onto P81 Unifilter plates with a wash buffer of 50 mM orthophosphoric acid.

[5] = target: EF2K (Homo sapiens (Human), UniProt O00418); test: EF2K kinase selectivity assay
Procedure: EF2K (5-20 mU diluted in 50 mM Hepes pH 6.6, 0.1% b-mercaptoethanol, 1 mg/ml BSA) is assayed against a substrate peptide ([…]) in a final volume of 25.5 μl containing 50 mM Hepes pH 6.6, 0.2 mM CaCl2, 0.3 μM Calmodulin, 0.05% b-mercaptoethanol, 300 μM substrate peptide, 10 mM magnesium acetate and 0.005 mM [33P-g-ATP] (50-1000 cpm/pmole) and incubated for 30 min at room temperature. Assays are stopped by addition of 5 μl of 0.5 M (3%) orthophosphoric acid and then harvested onto P81 Unifilter plates with a wash buffer of 50 mM orthophosphoric acid.

[6] = target: TrkA (Homo sapiens (Human), UniProt P04629); test: TrkA kinase selectivity assay
Sequence of TrkA (P04629 33-796, species assumed): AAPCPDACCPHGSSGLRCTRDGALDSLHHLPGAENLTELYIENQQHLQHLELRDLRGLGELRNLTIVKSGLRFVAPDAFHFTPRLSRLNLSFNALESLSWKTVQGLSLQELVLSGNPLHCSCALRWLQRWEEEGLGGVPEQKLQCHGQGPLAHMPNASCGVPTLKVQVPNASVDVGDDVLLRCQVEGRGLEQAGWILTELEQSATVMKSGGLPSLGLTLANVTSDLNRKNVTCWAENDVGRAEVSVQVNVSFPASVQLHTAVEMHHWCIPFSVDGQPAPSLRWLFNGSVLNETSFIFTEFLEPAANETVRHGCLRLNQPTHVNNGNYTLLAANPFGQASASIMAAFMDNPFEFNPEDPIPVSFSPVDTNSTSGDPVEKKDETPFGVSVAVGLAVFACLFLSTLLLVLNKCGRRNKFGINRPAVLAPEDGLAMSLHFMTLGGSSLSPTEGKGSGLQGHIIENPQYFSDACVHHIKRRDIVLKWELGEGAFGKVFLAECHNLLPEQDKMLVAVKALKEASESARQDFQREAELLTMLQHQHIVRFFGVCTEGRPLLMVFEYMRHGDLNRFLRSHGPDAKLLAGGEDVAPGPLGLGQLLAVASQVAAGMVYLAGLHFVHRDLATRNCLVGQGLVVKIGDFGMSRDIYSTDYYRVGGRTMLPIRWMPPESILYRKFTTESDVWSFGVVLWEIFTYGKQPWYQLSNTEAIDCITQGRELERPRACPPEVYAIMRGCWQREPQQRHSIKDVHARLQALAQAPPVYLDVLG
Procedure: TrkA (5-20 mU diluted in 50 mM Tris pH 7.5, 0.1 mM EGTA, 10 mM MnCl, 1 mg/ml BSA) is assayed against a substrate peptide (Poly Glut Tyr) in a final volume of 25.5 μl containing 50 mM Tris pH 7.5, 0.1 mM EGTA, 1 mg/ml substrate peptide, 10 mM magnesium acetate and 0.02 mM [33P-γ-ATP] (50-1000 cpm/pmole) and incubated for 30 min at room temperature. Assays are stopped by addition of 5 μl of 0.5 M (3%) orthophosphoric acid and then harvested onto P81 Unifilter plates with a wash buffer of 50 mM orthophosphoric acid.

[7] = target: SYK (Homo sapiens (Human), UniProt P43405); test: SYK kinase selectivity assay
Procedure: SYK (5-20 mU diluted in 50 mM Tris pH 7.5, 0.1 mM EGTA, 1 mg/ml BSA) is assayed against a substrate peptide (Poly Glut Tyr) in a final volume of 25.5 μl containing 50 mM Tris pH 7.5, 1 mg/ml substrate peptide, 10 mM magnesium acetate and 0.02 mM [33P-g-ATP] (50-1000 cpm/pmole) and incubated for 30 min at room temperature. Assays are stopped by addition of 5 μl of 0.5 M (3%) orthophosphoric acid and then harvested onto P81 Unifilter plates with a wash buffer of 50 mM orthophosphoric acid.

[8] = system: Lck; test: Lck kinase selectivity assay
Procedure: LCK (5-20 mU diluted in 20 mM MOPS pH 7.5, 1 mM EDTA, 0.01% Brij35, 5% glycerol, 0.1% b-mercaptoethanol, 1 mg/ml BSA) is assayed against Cdc2 peptide ([…]) in a final volume of 25.5 μl containing 50 mM Tris pH 7.5, 0.1 mM EGTA, 0.1 mM Na3Vo4, Cdc2 peptide (0.25 mM), 10 mM magnesium acetate and 0.05 mM [33P-g-ATP](500-1000 cpm/pmole) and incubated for 15 min at room temperature Assays are stopped by addition of 5 μl of 0.5 M (3%) orthophosphoric acid and then harvested onto P81 Unifilter plates with a wash buffer of 50 mM orthophosphoric acid.

[9] = target: ROCK2 (Homo sapiens (Human), UniProt O75116); test: ROCK2 kinase selectivity assay
Sequence of ROCK2 (O75116 whole entry, species assumed): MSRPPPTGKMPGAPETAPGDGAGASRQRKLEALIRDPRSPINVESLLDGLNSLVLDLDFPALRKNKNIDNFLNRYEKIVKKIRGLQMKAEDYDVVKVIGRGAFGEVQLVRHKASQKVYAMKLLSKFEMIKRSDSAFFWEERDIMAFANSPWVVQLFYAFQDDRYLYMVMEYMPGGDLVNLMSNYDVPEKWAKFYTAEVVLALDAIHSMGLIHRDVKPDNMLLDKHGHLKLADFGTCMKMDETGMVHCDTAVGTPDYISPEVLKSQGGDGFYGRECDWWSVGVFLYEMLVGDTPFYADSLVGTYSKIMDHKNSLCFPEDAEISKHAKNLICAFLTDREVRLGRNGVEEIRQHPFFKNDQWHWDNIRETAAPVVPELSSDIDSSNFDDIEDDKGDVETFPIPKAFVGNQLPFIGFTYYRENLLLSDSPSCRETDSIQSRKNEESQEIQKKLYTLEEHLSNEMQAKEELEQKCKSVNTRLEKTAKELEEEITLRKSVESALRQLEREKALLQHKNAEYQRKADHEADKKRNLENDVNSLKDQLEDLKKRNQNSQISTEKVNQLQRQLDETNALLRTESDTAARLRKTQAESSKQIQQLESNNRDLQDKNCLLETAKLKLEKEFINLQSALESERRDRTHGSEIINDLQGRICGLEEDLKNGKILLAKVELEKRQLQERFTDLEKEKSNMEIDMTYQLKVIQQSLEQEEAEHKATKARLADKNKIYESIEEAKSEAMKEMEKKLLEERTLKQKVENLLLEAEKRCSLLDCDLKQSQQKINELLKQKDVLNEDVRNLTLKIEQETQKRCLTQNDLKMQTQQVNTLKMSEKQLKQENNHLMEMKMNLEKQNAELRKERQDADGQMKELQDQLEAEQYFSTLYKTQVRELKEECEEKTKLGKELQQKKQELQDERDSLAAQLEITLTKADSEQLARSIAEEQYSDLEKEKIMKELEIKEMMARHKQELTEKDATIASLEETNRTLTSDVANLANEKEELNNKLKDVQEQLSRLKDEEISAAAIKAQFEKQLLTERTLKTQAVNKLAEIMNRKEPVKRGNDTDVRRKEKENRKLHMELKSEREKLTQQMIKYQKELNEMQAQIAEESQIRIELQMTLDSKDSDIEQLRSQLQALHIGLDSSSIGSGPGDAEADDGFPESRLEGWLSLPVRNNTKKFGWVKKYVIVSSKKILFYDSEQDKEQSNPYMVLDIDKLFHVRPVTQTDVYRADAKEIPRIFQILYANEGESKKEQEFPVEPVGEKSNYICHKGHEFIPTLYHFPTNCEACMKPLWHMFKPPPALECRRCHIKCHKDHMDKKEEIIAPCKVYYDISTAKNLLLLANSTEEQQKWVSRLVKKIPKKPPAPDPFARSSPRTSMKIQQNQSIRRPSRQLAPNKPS
Procedure: ROCK-II (ROKa) (5-20 mU diluted in 50 mM Tris pH 7.5, 0.1 mM EGTA, 0.1% b-mercaptoethanol, 1 mg/ml BSA) is assayed against Long S6 substrate peptide ([…]) in a final volume of 25.5 μl containing 50 mM Tris pH 7.5, 0.1 mM EGTA, 30 μM Long S6 substrate peptide, 10 mM magnesium acetate and 0.02 mM [33P-g-ATP] (50-1000 cpm/pmole) and incubated for 30 min at room temperature. Assays are stopped by addition of 5 μl of 0.5 M (3%) orthophosphoric acid and then harvested onto P81 Unifilter plates with a wash buffer of 50 mM orthophosphoric acid.

Sequence of YES1 (P07947 whole entry, species assumed): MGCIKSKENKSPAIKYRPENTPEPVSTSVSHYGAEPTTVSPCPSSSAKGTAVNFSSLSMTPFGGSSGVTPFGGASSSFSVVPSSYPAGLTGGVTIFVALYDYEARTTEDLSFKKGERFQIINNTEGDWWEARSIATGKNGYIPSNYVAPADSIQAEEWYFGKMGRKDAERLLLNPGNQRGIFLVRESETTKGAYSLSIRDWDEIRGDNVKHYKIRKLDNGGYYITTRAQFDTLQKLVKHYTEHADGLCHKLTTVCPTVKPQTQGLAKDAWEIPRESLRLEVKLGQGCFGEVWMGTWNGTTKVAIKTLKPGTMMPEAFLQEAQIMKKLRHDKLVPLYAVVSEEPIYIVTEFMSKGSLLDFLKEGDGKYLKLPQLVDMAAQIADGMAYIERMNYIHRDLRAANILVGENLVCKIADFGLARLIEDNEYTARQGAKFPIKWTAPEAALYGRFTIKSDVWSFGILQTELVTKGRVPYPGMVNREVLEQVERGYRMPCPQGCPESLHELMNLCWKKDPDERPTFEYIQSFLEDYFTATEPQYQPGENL

c1cc2[nH]nc3c2c(n1)N(C1CCC1)CCC3 [Example 22, 6-cyclobutyl-6,7,8,9-tetrahydro-2H-1,2,5,6-tetraazabenzo[cd]azulene]
percentage inhibition of YES1 [1]: 0 percentage
percentage inhibition of VEG-FR [2]: 0 percentage
percentage inhibition of MST2 [3]: 20 percentage
percentage inhibition of CK1δ [4]: 0 percentage
percentage inhibition of EF2K [5]: 0 percentage
percentage inhibition of TrkA [6]: 0 percentage
percentage inhibition of SYK [7]: 0 percentage
percentage inhibition of Lck [8]: 0 percentage
percentage inhibition of ROCK2 [9]: 5 percentage

c1cc2[nH]nc3c2c(n1)N(C1CCCC1)CCC3 [Example 23, 6-cyclopentyl-6,7,8,9-tetrahydro-2H-1,2,5,6-tetraazabenzo[cd]azulene]
percentage inhibition of YES1 [1]: 0 percentage
percentage inhibition of MST2 [3]: 0 percentage
percentage inhibition of CK1δ [4]: 0 percentage
percentage inhibition of EF2K [5]: 0 percentage
percentage inhibition of TrkA [6]: 0 percentage
percentage inhibition of SYK [7]: 0 percentage
percentage inhibition of ROCK2 [9]: 0 percentage

c1cc2[nH]nc3c2c(n1)N(C1CCOCC1)CCC3 [Example 29, 6-(tetrahydro-2H-pyran-4-yl)-6,7,8,9-tetrahydro-2H-1,2,5,6-tetraazabenzo[cd]azulene]
percentage inhibition of YES1 [1]: 0 percentage
percentage inhibition of VEG-FR [2]: 9 percentage
percentage inhibition of MST2 [3]: 10 percentage
percentage inhibition of CK1δ [4]: 11 percentage
percentage inhibition of EF2K [5]: 0 percentage
percentage inhibition of TrkA [6]: 20 percentage
percentage inhibition of SYK [7]: 0 percentage
percentage inhibition of Lck [8]: 0 percentage
percentage inhibition of ROCK2 [9]: 11 percentage

CN1CCC(N2Cc3ccccc3-c3n[nH]c4ccnc2c34)CC1 [Example 55]
percentage inhibition of YES1 [1]: 16 percentage
percentage inhibition of VEG-FR [2]: 19 percentage
percentage inhibition of MST2 [3]: 28 percentage
percentage inhibition of CK1δ [4]: 12 percentage
percentage inhibition of EF2K [5]: 1 percentage
percentage inhibition of TrkA [6]: 5 percentage
percentage inhibition of SYK [7]: 0 percentage
percentage inhibition of Lck [8]: 6 percentage
percentage inhibition of ROCK2 [9]: 14 percentage

CC(C)n1ncc2c1CN(C1CCN(C)CC1)c1nccc3[nH]nc-2c13 [Example 68]
percentage inhibition of YES1 [1]: 5 percentage
percentage inhibition of VEG-FR [2]: 42 percentage
percentage inhibition of MST2 [3]: 2 percentage
percentage inhibition of CK1δ [4]: 3 percentage
percentage inhibition of EF2K [5]: 1 percentage
percentage inhibition of TrkA [6]: 9 percentage
percentage inhibition of SYK [7]: 1 percentage
percentage inhibition of Lck [8]: 0 percentage
percentage inhibition of ROCK2 [9]: 21 percentage
